In publication PMC4822253, “Inhibition of BMP and of TGFβ receptors downregulates expression of XIAP and TAK1 leading to lung cancer cell death” (Molecular Cancer, 2016):

Assays:
H1299 Id1-luc cells = assay: Id1-promoter luciferase reporter assay; assay type: cell-based
Method: H1299 cells were stably transfected with the Id1-promoter luciferase reporter. Treated cells were lysed with 1X luciferase lysis buffer (Promega). Samples were added to luciferase assay substrate (Promega) and luminsescence measured by the TD-20/20 Luminometer (Turner Designs/Turner BioSystems, Sunnyvale, CA). Control samples included luciferase assay substrate alone and luciferase assay substrate plus 1X reporter lysis buffer.

H1299 cells [1] = assay: Western blot analysis of cells in culture; assay type: cell-based
Method: Total cellular protein was prepared using RIPA buffer containing a protease inhibitor cocktail and protein concentration was measured using the BCA assay as described. In brief, protein was analyzed by SDS-PAGE, transferred to nitrocellulose (Schleicher and Schuell, Keene, NH). After blocking, the blots were incubated overnight at 4 °C with the appropriate primary antibody in Tris-buffered saline with 1 % Tween (TBST) and 5 % BSA. Secondary antibodies were applied for 1 h at room temperature. Specific proteins were detected using the enhanced chemiluminescence system (Amersham, Arlington Heights, IL). The primary antibodies that were used were rabbit monoclonal anti-pSmad 1/5, rabbit monoclonal anti-pSmad2, rabbit monoclonal anti-Smad2, rabbit monoclonal anti-pTAK1, rabbit monoclonal XIAP, rabbit anti-monoclonal p-p65, rabbit monoclonal anti-activated caspase-3, rabbit polyclonal anti-BMPRII, and rabbit monoclonal anti-EGR-1 (Cell signaling Technology, Danvers MA), Rabbit monoclonal anti-TAK1 (Invitrogen, Grand Island NY), rabbit anti-actin, an affinity isolated antigen specific antibody (Sigma, Saint Louis, MO), rabbit monoclonal anti-Id1 and rabbit monoclonal anti-Id3 (Calbioreagents, San Mateo, CA), rabbit polyclonal anti-GAPDH (Sigma, St. Louis, MO) and rabbit polyclonal pMEK-1/2 (Cell Signaling, Danvers MA).

A549 cells = assay: Cell counts (live cells, trypan blue); assay type: cell-based; conditions: compound alone, 7 days
Method: (§1) Cells were plated into 6 well plates at 10^5 cells per well and treated with 1 μM DMSO or antagonist for 7 days. The cells were detached with trypsin, stained with trypan blue, and the number of live cells counted using a hemocytometer.

H1299 cells [2] = assay: Cell counts (live cells, trypan blue); assay type: cell-based; conditions: compound alone, 7 days
Method: as §1

H1299 cells [3] = assay: Cell death assay (ethidium bromide uptake); assay type: cell-based; conditions: H1299 cells; after 3 days
Method: Cells were plated in 6 well plates with 10^6 cells per well. Three days following treatment with inhibitor(s) and/or transfection the adherent and floating cells were harvested and incubated with 0.1 mg/ml of ethidium bromide. Cells that die by necrosis or apoptosis lose membrane integrity and take up ethidium bromide. Immediately after staining approximately 100 cells were counted and the percentage of cells that took up ethidium bromide was determined.

BMPRII = target: T1, BMPRII (Homo sapiens, UniProt Q13873); design: method as in PMID 23639540; conditions: reported literature (Table 1); cited from earlier work
T1 construct: purchased Reaction Biology Corporation (Malvern, PA)
T1 sequence (Q13873 27-1038): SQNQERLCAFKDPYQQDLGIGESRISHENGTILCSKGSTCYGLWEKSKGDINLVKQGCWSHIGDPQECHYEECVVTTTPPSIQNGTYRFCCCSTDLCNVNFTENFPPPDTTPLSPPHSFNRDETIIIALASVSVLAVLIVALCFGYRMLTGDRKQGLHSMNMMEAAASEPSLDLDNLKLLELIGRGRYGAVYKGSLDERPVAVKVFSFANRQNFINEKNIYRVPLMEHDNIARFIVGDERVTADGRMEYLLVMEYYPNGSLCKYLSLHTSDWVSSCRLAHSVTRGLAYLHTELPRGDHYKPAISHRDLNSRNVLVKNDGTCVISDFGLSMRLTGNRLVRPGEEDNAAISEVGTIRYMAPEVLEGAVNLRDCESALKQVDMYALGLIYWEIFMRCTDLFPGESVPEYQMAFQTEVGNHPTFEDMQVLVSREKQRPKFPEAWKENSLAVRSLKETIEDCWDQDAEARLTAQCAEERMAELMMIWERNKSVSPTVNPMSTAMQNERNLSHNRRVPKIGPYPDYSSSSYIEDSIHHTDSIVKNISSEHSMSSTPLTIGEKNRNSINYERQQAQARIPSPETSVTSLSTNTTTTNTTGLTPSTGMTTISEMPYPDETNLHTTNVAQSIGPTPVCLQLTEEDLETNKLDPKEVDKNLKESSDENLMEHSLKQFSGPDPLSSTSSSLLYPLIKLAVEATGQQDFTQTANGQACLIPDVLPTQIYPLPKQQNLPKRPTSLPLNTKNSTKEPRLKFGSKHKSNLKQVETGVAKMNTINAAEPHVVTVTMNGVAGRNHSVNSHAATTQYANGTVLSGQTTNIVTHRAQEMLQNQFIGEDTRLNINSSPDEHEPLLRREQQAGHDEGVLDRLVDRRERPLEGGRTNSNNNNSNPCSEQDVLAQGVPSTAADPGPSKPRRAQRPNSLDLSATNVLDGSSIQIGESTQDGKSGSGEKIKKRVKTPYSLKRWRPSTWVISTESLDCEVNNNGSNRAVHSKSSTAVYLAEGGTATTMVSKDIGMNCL

Alk5/TGFbetaR1 = target: T2, Alk5/TGFbetaR1 (Homo sapiens, UniProt P36897); conditions: cited from earlier work
T2 construct: purchased Reaction Biology Corporation (Malvern, PA)
T2 sequence (P36897 34-503): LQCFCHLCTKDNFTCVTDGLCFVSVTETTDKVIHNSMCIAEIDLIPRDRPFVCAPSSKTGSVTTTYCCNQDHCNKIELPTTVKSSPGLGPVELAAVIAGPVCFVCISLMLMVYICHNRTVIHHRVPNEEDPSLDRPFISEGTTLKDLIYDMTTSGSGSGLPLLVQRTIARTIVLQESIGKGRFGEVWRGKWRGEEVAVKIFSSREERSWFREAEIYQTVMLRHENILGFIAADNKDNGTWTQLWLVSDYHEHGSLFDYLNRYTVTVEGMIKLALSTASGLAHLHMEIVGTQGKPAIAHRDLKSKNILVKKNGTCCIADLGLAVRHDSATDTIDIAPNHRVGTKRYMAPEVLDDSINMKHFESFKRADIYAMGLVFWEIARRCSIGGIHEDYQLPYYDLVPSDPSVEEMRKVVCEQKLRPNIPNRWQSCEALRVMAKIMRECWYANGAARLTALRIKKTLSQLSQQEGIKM

Alk2/ACVRR1 = target: T3, Alk2/ACVRR1 (Homo sapiens, UniProt Q04771); design: purchased Reaction Biology Corporation (Malvern, PA); conditions: reported literature; read-out: IC50 Alk2/ACVRR1; cited from earlier work
T3 sequence (Q04771 21-509): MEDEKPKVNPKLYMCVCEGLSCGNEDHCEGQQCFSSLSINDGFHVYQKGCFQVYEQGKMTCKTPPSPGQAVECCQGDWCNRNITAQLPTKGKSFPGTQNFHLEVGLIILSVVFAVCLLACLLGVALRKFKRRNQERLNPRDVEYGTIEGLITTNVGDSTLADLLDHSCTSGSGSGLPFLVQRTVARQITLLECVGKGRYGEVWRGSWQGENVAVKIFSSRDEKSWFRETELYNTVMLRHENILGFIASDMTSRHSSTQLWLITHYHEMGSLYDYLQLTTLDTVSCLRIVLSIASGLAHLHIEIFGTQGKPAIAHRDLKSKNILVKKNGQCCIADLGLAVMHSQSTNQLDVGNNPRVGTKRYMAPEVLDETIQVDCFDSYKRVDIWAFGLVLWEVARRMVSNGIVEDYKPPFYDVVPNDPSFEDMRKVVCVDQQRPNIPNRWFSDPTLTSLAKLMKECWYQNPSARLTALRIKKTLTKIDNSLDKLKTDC

Alk3/BMPR1A = Alk3/BMPR1A (Homo sapiens, UniProt P36894); design: purchased Reaction Biology Corporation (Malvern, PA); method as in PMID 23639540; conditions: reported literature; cited from earlier work
Sequence of Alk3/BMPR1A (P36894 24-532): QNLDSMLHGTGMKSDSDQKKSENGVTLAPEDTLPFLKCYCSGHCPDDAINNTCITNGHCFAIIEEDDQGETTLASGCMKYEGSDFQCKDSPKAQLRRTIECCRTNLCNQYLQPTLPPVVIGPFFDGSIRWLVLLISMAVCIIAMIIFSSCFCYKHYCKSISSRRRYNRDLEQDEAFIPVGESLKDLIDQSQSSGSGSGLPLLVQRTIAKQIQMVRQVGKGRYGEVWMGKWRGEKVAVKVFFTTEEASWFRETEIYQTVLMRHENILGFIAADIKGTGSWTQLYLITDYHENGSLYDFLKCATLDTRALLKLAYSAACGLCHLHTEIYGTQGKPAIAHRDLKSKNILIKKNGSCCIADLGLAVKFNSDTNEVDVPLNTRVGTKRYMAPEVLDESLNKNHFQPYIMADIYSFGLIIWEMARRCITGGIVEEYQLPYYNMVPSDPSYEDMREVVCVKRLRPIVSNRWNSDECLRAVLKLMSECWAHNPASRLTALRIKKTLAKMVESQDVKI

O=C(NOC[C@H](O)CO)c1ccc(F)c(F)c1Nc1ccc(I)cc1F [PD0325901]
promoter activity of Id1 (Id-1 luciferase reporter) (H1299 Id1-luc cells; 48 h): did not regulate

Cc1cccc(-c2[nH]c(C(C)(C)C)nc2-c2ccc3c(c2)OCO3)n1 [SB]
expression of Id1 (H1299 cells [1]; H1299 cells, compound alone, increasing doses): dose-related increase
Id1 promoter activity (H1299 Id1-luc cells; compound alone): increase
growth (cell counts) (A549 cells): growth suppression
growth (cell counts) (H1299 cells [2]): little effect

COc1cc(O)c2c(c1)/C=C/C[C@H](O)[C@H](O)C(=O)/C=C\C[C@H](C)OC2=O [5Z, 5Z-7-oxozeaenol]
expression of pSmad 1/5, Id1, and pTAK1 (H1299 cells [1]; H1299 cells, after 24 h): dose-related decrease
expression of Id1, pSmad 1/5, and pTAK1 (H1299 cells [1]; H1299 cells, after 48 h): increasing
Id1 promoter activity (H1299 Id1-luc cells; 2 μM, after 24 h): suppressed
Id1 promoter activity (H1299 Id1-luc cells; after 48 h): no longer suppressed

CC(C)Oc1ccc(-c2cnc3c(-c4ccnc5ccccc45)cnn3c2)cc1 [DMH1]
expression of Smad2 (H1299 cells [1]; H1299 cells, 3 days): did not show significant regulation
expression of XIAP (H1299 cells [1]; H1299 cells, after 3 days (cell line not stated for DMH1 and LDN)): did not downregulate
activation of caspase-3 (H1299 cells [1]; H1299 cells, after 3 days, alone or in combination with SB): did not activate
activation of Smad2 and TAK1 (H1299 cells [1]; in vitro 48 h, cell line not stated in legend): activation
cell death (H1299 cells [3]): little cell death
inhibition of BMPRII (BMPRII): does not occur
activity for TGFβ receptors (Alk5/TGFbetaR1): no activity
IC50 (Alk2/ACVRR1): 108 nM
IC50 (Alk3/BMPR1A): 5 nM
